# Data reported in the supplement of paper PMC10307832.
# Tests used:
# Assay in all cases: relative viability (nuclei count vs DMSO), 5 days (fraction); higher = more cells survive
# Mirin = compound: N=C1NC(=O)/C(=C/c2ccc(O)cc2)S1 [Mirin]
# In short: (§1)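 Viability was read as treated-well nuclei divided by vehicle-well nuclei, using the median across plates. Lung cancer cell lines in 1536-well plates were kept overnight at 37 °C, pinned with five √10-spaced library-drug doses, and after 5 days were Hoechst-stained, imaged at 4× and counted in MetaXpress. Plates passed only with control CV below 25% and at least one doubling.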
# [1] = compound: CCC1=CN=CN=C1N2CCN(CC2)CC3=NC4=C(N3)C=C(C=C4)C(F)(F)F
# In short: as §1
# [2] = compound: CCn1c(-c2nonc2N)nc2cnc(Oc3cccc(NC(=O)c4ccc(OCCN5CCOCC5)cc4)c3)cc21
# In short: as §1
Cell Line,relative viability (Mirin; 0.25 µM),relative viability (Mirin; 0.7906 µM),relative viability (Mirin; 2.5 µM),relative viability (Mirin; 7.906 µM),relative viability (Mirin; 25 µM),relative viability ([1]; 0.04 µM),relative viability ([1]; 0.1265 µM),relative viability ([1]; 0.4 µM),relative viability ([1]; 1.265 µM),relative viability ([1]; 4 µM),relative viability ([2]; 0.04 µM),relative viability ([2]; 0.1265 µM),relative viability ([2]; 0.4 µM),relative viability ([2]; 1.265 µM),relative viability ([2]; 4 µM)
NCI-H1437,1,1.02,0.984,0.995,0.958,0.948,0.92,0.921,0.863,0.747,1.03,0.933,0.763,0.796,0.705
NCI-H1563,1.03,1.21,0.995,0.942,0.951,0.956,0.965,0.953,0.9,1,0.853,0.872,0.868,0.86,0.778
NCI-H1623,0.967,1.08,1.04,0.823,0.738,0.897,0.996,0.873,0.832,1.17,1.13,1.02,0.974,0.902,1.08
NCI-H1648,1.04,0.726,1.09,0.552,0.709,0.916,0.664,,1.1,0.611,1.27,1.34,0.982,1.35,0.875
NCI-H1650,0.963,1.08,1,0.984,0.61,0.82,0.824,0.84,0.703,0.981,1.21,0.894,0.858,0.746,0.812
NCI-H1651,0.962,0.973,1.03,0.866,0.918,1.08,0.961,0.978,0.909,0.988,1.05,1.01,0.826,0.7,0.648
NCI-H1666,1.05,1.04,0.987,0.889,0.892,0.99,0.929,0.952,0.962,0.944,1.13,1.15,1.04,0.607,0.628
NCI-H1703,1.07,0.925,0.966,,0.83,0.953,0.914,0.819,0.73,0.968,1.02,0.809,0.616,0.635,0.41
NCI-H1734,0.978,0.761,0.929,0.895,0.884,0.88,0.98,0.943,0.814,1.03,0.961,0.878,0.545,0.418,0.362
NCI-H1755,1.03,1.01,1.01,1.02,1.13,1.05,0.937,0.978,0.872,1,1.02,0.913,0.71,0.627,0.577
NCI-H1792,0.775,0.925,0.859,0.711,1.06,0.79,0.749,0.814,,0.96,1.05,0.773,0.343,0.458,0.599
NCI-H1793,1.1,,0.987,0.914,0.826,0.894,0.796,0.702,,0.796,0.897,0.838,0.526,0.587,0.483
NCI-H1915,1,,0.984,0.951,1.03,0.992,0.976,0.926,0.809,1.05,1.11,1.01,0.811,0.331,0.404
NCI-H1944,0.979,0.952,0.971,0.898,0.625,1.11,0.929,0.847,0.652,0.852,0.977,0.946,0.577,0.576,0.336
NCI-H1975,1.07,1.03,0.94,1.01,0.979,1.04,0.951,0.931,0.844,0.942,0.824,0.636,0.49,0.427,0.304
NCI-H1993,0.914,0.75,1.08,0.941,0.879,0.968,0.921,0.809,0.916,0.945,0.985,0.878,0.603,0.793,0.82
NCI-H2009,1.01,1.08,1.04,0.843,1.01,1.08,0.991,0.989,0.963,0.933,0.978,0.754,0.676,0.374,0.418
